From paper PMC12149313 (Cell Death & Disease, 2025)

System: T1, β-tubulin
T1 construct: gene TUBB
Assay: ITDR-CETSA of β-tubulin at […] °C in CFPAC-1 COMT-/- cells
Type: cell-based

- EC50: 3000 ± 2000 nM
Structure (SMILES): CNc1nc2ccccc2n2c(-c3ccc(OC)c(O)c3)cnc12 [EAPB04303]
